Data published in patent publication US7135615B2, “Chromosome doubling method” (The Curators of the University of Missouri, priority 2001, dated 2006).
Marks after values point to notes of the source that are not given here.

Tests used:
[1] = tested on: flowers of grasses; maize haploids; test: nitrous oxide procedure, general statement of doubling and selfing rates; type: in vivo, maize (Zea mays L.)
From the text: The technique results from studies carried out for the development of a high-yield technique for chromosome doubling in grasses and particularly, in maize. The new procedure induces doubled sectors on the flowers of grasses at a high rate (50–100%) without injuring seedlings. […] With the technique, large number of plants (1000/day) can be treated by one person. In maize haploids, doubled sectors are induced both on the tassels and ears and self pollination is possible at 30–90% level, whereas no reliable procedure for chromosome doubling had previously been available.

[2] = tested on: maize Oh43 haploid seedlings; test: nitrous oxide gas treatment at 3–8 leaf stages, Oh43 haploids (Example 3); details: for Ear (open pollinated): No. of fertile sectors /ear / Ear (open pollinated): No. of kernels produced /ear / Ear (open pollinated): Plants with fertile sectors % / No. of tassel branch Average / Plant height (cm) Average / Tassel: No. of fertile anthers extruded/tassel / Tassel: No. of fertile sectors/tassel / Tassel: Plants with fertile sectors % / Ear (open pollinated): Plants with fertile sectors No. / Tassel: Plants with fertile sectors No. / No. of plants Survived: 600 kPa, 2 days
From the text: Leaf stages were defined as follows, At the 3 leaf stage, there are three elongated leaves and the tip of the fourth leaf appears at the center of the leaf whorl. This stage is defined as V2 according to Ritchie et al. (1997). At the 8 leaf stage, there are 8 elongated leaves and the tip of the 9th and 10th leaves appear at the center of the leaf whorl (late V5 stage). At the 6 leaf stage, six elongated leaves are observable, and the tip of seventh leaf appears at the leaf whorl (late V4 or early V5 stage). Nine to sixteen haploid plants were treated at each stage using a large air tight iron chamber (FIG. 3). […] Moistened calcium hydroxide (50 g) wrapped in a paper towel was included to absorb carbon dioxide that is produced by the seedlings, as carbon dioxide at high concentration will injure the seedlings during the treatment. The soil of the pots was dried prior to treatment to prevent root injuries. […] The gas was introduced slowly into the chamber over a 10 minutes time frame.
After the treatment, seedlings were transplanted into larger pots, and grown in a greenhouse. A relatively cool temperature (below 25° C.) was maintained to permit the appropriate development of doubled sectors. At flowering, the ears were cross pollinated by an appropriate pollen source to reveal all the fertile sectors on the ears. On the treated plants, plant height (cm), tassel size (cm), number of tassel branches, ear length (cm), the number of fertile sectors on a tassel and an ear, the number of anthers on a tassel, and the number of kernels on an ear were recorded.
Analyses of variance and Duncan's Multiple Range Tests were performed to determine the effects of treatments on the plant height (cm), tassel size (cm), and ear length (cm). Chi square tests were used to determine the effects of treatments upon the proportion of plants that developed fertile tassel and ear sectors. The ratios of untreated plants with fertile sectors were used to estimate the significance of the ratio of treated plants with fertile sectors.
Nonparametric tests were performed to compare the distributions. The primary test was the Kruskal-Wallis test. In the initial tests, the null hypothesis considered was that the distributions would be the same for each treatment and control. If the null hypothesis was rejected (P<0.05), then pair wise comparisons of each treatment to the control using Dunn's method were conducted. The tassel branch number was low incidence count data and was analyzed using the same nonparametric tests mentioned above.

[3] = tested on: maize haploid seedlings of origin A619 × B73; test: doubled haploid production trial, A619 × B73 haploids (Example 4); details: 600 kPa, 2 days; for Ear: No. of kernels produced/ear: selfed
Procedure: Ten to nineteen plants were treated for each plot. Self pollinations were conducted on these treated haploids if there were fertile sectors on the tassel. Pollen grains were collected carefully on a sheet of paper and transferred to the silks repeatedly. Silks and husks were cut back prior to pollination in order to permit maximum seed set. The numbers of fertile tassel and ear sectors, as well as the numbers of anthers and selfed kernels were recorded. Statistical analyses were as described above.

With [N-]=[N+]=O [nitrous oxide gas, nitrous oxide] the “rate of doubled sectors induced on the flowers of grasses” value ([1]; grasses, without injuring seedlings) was 50–100%, the “level at which self pollination is possible” value ([1]; maize haploids, doubled sectors on both tassels and ears) was 30–90% and the “Ear (open pollinated): No. of fertile sectors /ear” value (from here on “Ear … No. of fertile sectors /ear”) ([2]; 3 leaf stage) was 0.7 /ear. The “Ear (open pollinated): No. of kernels produced /ear” value (from here on “Ear … No. of kernels produced /ear”) ([2]; 3 leaf stage) was 0.5 /ear, the “Ear (open pollinated): Plants with fertile sectors %” value (shortened to “Ear … with fertile sectors %”) ([2]; 3 leaf stage) was 33% and the “No. of tassel branch Average” value ([2]; 3 leaf stage) was 3.8**. For the same compound, the “Plant height (cm) Average” value ([2]; 3 leaf stage) was 106 a cm, the “Tassel: No. of fertile anthers extruded/tassel” value ([2]; 3 leaf stage) was 0.0 /tassel and the “Tassel: No. of fertile sectors/tassel” value ([2]; 3 leaf stage) was 0.0 /tassel. For the same compound, the “Tassel: Plants with fertile sectors %” value ([2]; 3 leaf stage) was 0%, the “Ear (open pollinated): Plants with fertile sectors No.” value (shortened to “Ear … with fertile sectors No.”) ([2]; 3 leaf stage, 12 examined) was 4 and the “Tassel: Plants with fertile sectors No.” value ([2]; 3 leaf stage, 12 examined) was 0. For the same compound, the “No. of plants Survived” value ([2]; 3 leaf stage, 12 treated) was 12, the “effect for increasing the fertile sectors on either tassels and ears” value ([2]; 3–4 leaf stage) was “no effect” and the “number of anthers /tassel, span over treatments” value ([2]; 3–8 leaf stage treatments) was 0–19.7 /tassel. For the same compound, the “number of kernels on the ears, span over treatments” value ([2]; 3–8 leaf stage treatments) was 0.5–18.6, the “Ear … No. of fertile sectors /ear” value ([2]; 4 leaf stage) was 0.8 /ear and the “Ear … No. of kernels produced /ear” value ([2]; 4 leaf stage) was 0.8 /ear. The “Ear … with fertile sectors %” value ([2]; 4 leaf stage) was 46%, the “No. of tassel branch Average” value ([2]; 4 leaf stage) was 4.4** and the “Plant height (cm) Average” value ([2]; 4 leaf stage) was 121 b cm. The “Tassel: No. of fertile anthers extruded/tassel” value ([2]; 4 leaf stage) was 1.5 /tassel, the “Tassel: No. of fertile sectors/tassel” value ([2]; 4 leaf stage) was 0.3 /tassel and the “Tassel: Plants with fertile sectors %” value ([2]; 4 leaf stage) was 23%. For the same compound, the “Ear … with fertile sectors No.” value ([2]; 4 leaf stage, 13 examined) was 6, the “Tassel: Plants with fertile sectors No.” value ([2]; 4 leaf stage, 13 examined) was 3 and the “No. of plants Survived” value ([2]; 4 leaf stage, 13 treated) was 13. For the same compound, the “Ear … No. of fertile sectors /ear” value ([2]; 5 leaf stage) was 1.4 /ear, the “Ear … No. of kernels produced /ear” value ([2]; 5 leaf stage) was 1.8 /ear and the “Ear … with fertile sectors %” value ([2]; 5 leaf stage) was 46%. For the same compound, the “No. of tassel branch Average” value ([2]; 5 leaf stage) was 2.9**, the “Plant height (cm) Average” value ([2]; 5 leaf stage) was 124 b cm and the “Tassel: No. of fertile anthers extruded/tassel” value ([2]; 5 leaf stage) was 19.7 /tassel. The “Tassel: No. of fertile sectors/tassel” value ([2]; 5 leaf stage) was 1.2* /tassel, the “Tassel: Plants with fertile sectors %” value ([2]; 5 leaf stage) was 54** % and the “Ear … with fertile sectors No.” value ([2]; 5 leaf stage, 13 examined) was 6. For the same compound, the “Tassel: Plants with fertile sectors No.” value ([2]; 5 leaf stage, 13 examined) was 7, the “Ear … No. of fertile sectors /ear” value ([2]; 6 leaf stage) was 1.5 /ear and the “Ear … No. of kernels produced /ear” value ([2]; 6 leaf stage) was 18.6 /ear. The “Ear … with fertile sectors %” value ([2]; 6 leaf stage) was 67%, the “No. of tassel branch Average” value ([2]; 6 leaf stage) was 5.7 and the “Plant height (cm) Average” value ([2]; 6 leaf stage) was 119 b cm. For the same compound, the “Tassel: No. of fertile anthers extruded/tassel” value ([2]; 6 leaf stage) was 5.3 /tassel, the “Tassel: No. of fertile sectors/tassel” value ([2]; 6 leaf stage) was 1.8** /tassel and the “Tassel: Plants with fertile sectors %” value ([2]; 6 leaf stage) was 100%. The “Ear … with fertile sectors No.” value ([2]; 6 leaf stage, 12 examined) was 8, the “Tassel: Plants with fertile sectors No.” value ([2]; 6 leaf stage, 12 examined) was 12 and the “No. of plants Survived” value ([2]; 6 leaf stage, 16 treated) was 12. For the same compound, the “Ear … No. of fertile sectors /ear” value ([2]; 7 leaf stage) was 0.8 /ear, the “Ear … No. of kernels produced /ear” value ([2]; 7 leaf stage) was 1.1 /ear and the “Ear … with fertile sectors %” value ([2]; 7 leaf stage) was 46%. The “No. of tassel branch Average” value ([2]; 7 leaf stage) was 5.0*, the “Plant height (cm) Average” value ([2]; 7 leaf stage) was 122 b cm and the “Tassel: No. of fertile anthers extruded/tassel” value ([2]; 7 leaf stage) was 5.8** /tassel. For the same compound, the “Tassel: No. of fertile sectors/tassel” value ([2]; 7 leaf stage) was 2.1** /tassel, the “Tassel: Plants with fertile sectors %” value ([2]; 7 leaf stage) was 69** % and the “Ear … with fertile sectors No.” value ([2]; 7 leaf stage, 13 examined) was 6. For the same compound, the “Tassel: Plants with fertile sectors No.” value ([2]; 7 leaf stage, 13 examined) was 9, the “No. of plants Survived” value ([2]; 7 leaf stage, 16 treated) was 13 and the “Ear … No. of fertile sectors /ear” value ([2]; 8 leaf stage) was 1.0 /ear. The “Ear … No. of kernels produced /ear” value ([2]; 8 leaf stage) was 4.1 /ear, the “Ear … with fertile sectors %” value ([2]; 8 leaf stage) was 46% and the “No. of tassel branch Average” value ([2]; 8 leaf stage) was 5.3*. For the same compound, the “Plant height (cm) Average” value ([2]; 8 leaf stage) was 122 b cm, the “Tassel: No. of fertile anthers extruded/tassel” value ([2]; 8 leaf stage) was 3.1** /tassel and the “Tassel: No. of fertile sectors/tassel” value ([2]; 8 leaf stage) was 1.4** /tassel. The “Tassel: Plants with fertile sectors %” value ([2]; 8 leaf stage) was 69** %, the “Ear … with fertile sectors No.” value ([2]; 8 leaf stage, 13 examined) was 6 and the “Tassel: Plants with fertile sectors No.” value ([2]; 8 leaf stage, 13 examined) was 9. For the same compound, the “No. of plants Survived” value ([2]; 8 leaf stage, 16 treated) was 13, the “Ear: Plants with kernels after selfing %” value ([3]; 5 leaf stage) was 36 n.s. % and the “Tassel: No. of fertile anthers extruded/tassel” value ([3]; 5 leaf stage) was 20.8** /tassel. For the same compound, the “Tassel: Plants with fertile sectors %” value ([3]; 5 leaf stage) was 73** %, the “Ear: Plants with kernels after selfing No.” value (“Ear … after selfing No.” for short) ([3]; 5 leaf stage, 11 survived) was 4 and the “Tassel: Plants with fertile sectors No.” value ([3]; 5 leaf stage, 11 survived) was 8. The “No. of plants Survived” value ([3]; 5 leaf stage, 12 treated) was 11, the “Ear: No. of kernels produced/ear” value ([3]; 5 leaf stage) was 4.2 n.s. /ear and the “Ear: Plants with kernels after selfing %” value ([3]; 6 leaf stage) was 36%. For the same compound, the “Tassel: No. of fertile anthers extruded/tassel” value ([3]; 6 leaf stage) was 34.5** /tassel, the “Tassel: No. of fertile sectors/tassel” value ([3]; 6 leaf stage) was 1.7** /tassel and the “Tassel: Plants with fertile sectors %” value ([3]; 6 leaf stage) was 73** %. For the same compound, the “Ear … after selfing No.” value ([3]; 6 leaf stage, 11 survived) was 4, the “Tassel: Plants with fertile sectors No.” value ([3]; 6 leaf stage, 11 survived) was 8 and the “No. of plants Survived” value ([3]; 6 leaf stage, 11 treated) was 11. For the same compound, the “Ear: No. of kernels produced/ear” value ([3]; 6 leaf stage) was 6.2 /ear, the “Ear: Plants with kernels after selfing %” value ([3]; 7 leaf stage) was 17% and the “Tassel: No. of fertile anthers extruded/tassel” value ([3]; 7 leaf stage) was 4.8* /tassel. The “Tassel: Plants with fertile sectors %” value ([3]; 7 leaf stage) was 75** %, the “Ear … after selfing No.” value ([3]; 7 leaf stage, 12 survived) was 2 and the “Tassel: Plants with fertile sectors No.” value ([3]; 7 leaf stage, 12 survived) was 9. The “No. of plants Survived” value ([3]; 7 leaf stage, 12 treated) was 12 and the “Ear: No. of kernels produced/ear” value ([3]; 7 leaf stage) was 3.5 /ear.
